Experimental data taken from PMC6105804, “In Vitro and In Vivo Evaluation of APX001A/APX001 and Other Gwt1 Inhibitors against Cryptococcus” (Antimicrobial Agents and Chemotherapy, 2018).
Values after ≈ are worked out from the molar mass of the structure shown. Read-outs that look alike come from different tables or passages of the source.

Columns and labels:
C. neoformans strain H99 [1] = assay: Delayed-treatment model of cryptococcal meningitis; type: in vivo, Cryptococcus neoformans; details: treatment from 24 h after infection, QD 7 days; APX2096 60 mg/kg i.p. + ABT, AMB 3 mg/kg i.p.
Experimental: As in the previous mouse model, 100-mg/kg ABT (p.o.) was administered 2 h prior to each APX2096 dose (n = 5 mice/cohort). Infection was initiated on day 1, and treatment was initiated 24 h later (day 2) rather than 1 h later. Treatments were administered for 7 days (the final dose was administered on day 8), and mice were sacrificed on day 9 for CFU enumeration.
Male CD-1 mice were infected with 5.4 × 10^4 CFU per mouse via lateral tail vein injection. […] A dose of 100-mg/kg ABT was administered orally 2 h prior to each APX2096 dose. Mice were sacrificed 24 h after the last dose, and the brain and left lung were homogenized and cultured for quantitative determination of the tissue burden (number of CFU per gram of tissue). Fungal burden data were log10 transformed and evaluated using Kruskal-Wallis tests with Dunn's multiple-comparison test for post hoc analysis (Prism software, v5; GraphPad Software, Inc., San Diego, CA). A P value of ≤0.05 was considered statistically significant (*, P ≤ 0.05; **, P ≤ 0.01). The 95% confidence interval (CI) is presented.
Fungal burden data were log10 transformed and evaluated using Kruskal-Wallis tests with Dunn's multiple-comparison test for post hoc analysis (Prism software, v5; GraphPad Software, Inc., San Diego, CA). A P value of ≤0.05 was considered statistically significant.

C. albicans 90028 = assay: Broth microdilution susceptibility testing (CLSI M27-A3); type: cell-based, Candida albicans; details: Candida albicans, 90028; read-out: MIC, C. albicans 90028
Source text: (§1) C. neoformans strains H99, DUMC 118.00, and DUMC 158.03 and C. gattii strains R272 and RSA-MW-3515 were obtained from Duke University. C. albicans 90028, A. fumigatus MYA3626, C. neoformans 14116, C. neoformans 76484, and the pathogenic Cryptococcus reference strains panel (ATCC MP-11) were obtained from the American Type Culture Collection (ATCC; Manassas, VA, USA). The ATCC MP-11 panel consists of strains representing eight molecular types and three subtypes of C. neoformans and C. gattii.
(§2) To establish the antimicrobial activity of the APX001A analogs, broth microdilution susceptibility testing was performed according to Clinical and Laboratory Standards Institute (CLSI) guidelines M27-A3 ([47]) for yeasts and M38-A2 for molds ([48]). APX001A and analogs were first diluted in DMSO to obtain intermediate dilutions. These were further diluted in microtiter plates to obtain a final concentration of 2 to 0.002 μg/ml. One microliter of DMSO was added to the no-drug control wells. The solutions were mixed on a plate shaker for 10 min, and the plates were incubated at 35°C for 40 to 48 h (C. albicans, A. fumigatus) and 72 h (C. neoformans). The minimum concentration that led to a 50% reduction in fungal growth compared to that for the control (determined with the aid of a reading mirror) was determined as the MIC for C. albicans and C. neoformans. The minimum concentration that led to the shortening of hyphae compared to the hyphal growth in DMSO control wells was determined as the minimum effective concentration (MEC) for A. fumigatus (as read for the echinocandins). The use of the MIC and MEC endpoints for APX001A (formerly E1210) against yeasts and molds, respectively, has been described previously ([19][–][21]). For the cryptococcal synergy studies, APX001A and APX2020 MIC values were read at 50% inhibition.

C. neoformans [2] = assay: as above; type: cell-based, Cryptococcus neoformans; details: Cryptococcus neoformans
Source text: as §1, §2

C. neoformans [3] = system: C. neoformans; parameters: method as in PMID 15078612; details: U.S. isolates; cited from earlier work
A. fumigatus MYA3626 = assay: Broth microdilution susceptibility testing for molds (CLSI M38-A2); type: cell-based; details: Aspergillus fumigatus, MYA3626; read-out: MIC or MEC for A. fumigatus MYA3626
Source text: as §1, §2

[4] = system: FLC-susceptible and FLC-nonsusceptible/resistant strains of C. neoformans and C. gattii; assay: Broth microdilution, summary over the 18-strain Cryptococcus collection; type: cell-based, Cryptococcus neoformans and Cryptococcus gattii; details: 18 strains of C. neoformans and C. gattii
Experimental: as §2, with “The minimum concentration that led to the shortening of hyphae compared to the hyphal growth in DMSO control wells was determined as the minimum effective concentration (MEC) for A. fumigatus (as read for the echinocandins).” left out

C. gattii = assay: Broth microdilution susceptibility testing (CLSI M27-A3); type: cell-based; details: Cryptococcus gattii
Source text: as §1, §2

C. neoformans strain H99 [5] = assay: Murine cryptococcal meningitis model with ABT pretreatment (preliminary experiment); type: in vivo, Cryptococcus neoformans; details: 7 days
Experimental: In a preliminary experiment, the efficacies of APX001, APX2096, and APX2097 were evaluated in the disseminated model of CM (n = 5 mice/cohort). ABT at 100 mg/kg was administered orally to male CD-1 mice 2 h prior to APX compound administration. Mice were injected with 6.9 × 10^4 CFU of C. neoformans strain H99 per mouse via the lateral tail vein at time zero. Treatment with each prodrug was initiated at about 1 h postinfection by i.p. administration and continued daily for 7 days, with 100-mg/kg ABT being administered orally 2 h prior to each APX compound dose.
(§3) ABT at 100 mg/kg was administered orally to male CD-1 mice at 2 h prior to each APX compound dose. Mice were injected with 6.9 × 10^4 CFU of C. neoformans strain H99 per mouse via the lateral tail vein at time zero. Treatment with the APX compound was initiated at about 1 h postinfection by i.p. administration and continued for 7 days, with 100-mg/kg ABT being administered orally 2 h prior to each APX compound dose. […] Fungal burden data were log10 transformed and evaluated using Kruskal-Wallis tests with Dunn's multiple-comparison test for post hoc analysis (Prism software, v5; GraphPad Software, Inc., San Diego, CA). A P value of ≤0.05 was considered statistically significant (*, P ≤ 0.05; **, P ≤ 0.01). The 95% confidence interval (CI) is presented.
(§4) C. neoformans strain H99 was grown in yeast extract-peptone-dextrose broth at 30°C on a shaker (220 rpm) for 24 h, centrifuged (1,980 relative centrifugal force), and washed twice in phosphate-buffered saline (PBS), resuspended in PBS, and quantified by hemacytometric count. Male CD-1 mice were infected with ∼5 × 10^4 CFU per mouse via lateral tail vein injection of 100 μl. Mice were weighed, and treatment was begun within 1 h after infection. Treatments were administered daily for 7 days. Mice were weighed daily and observed for acute and chronic adverse symptoms. Mice were sacrificed on day 8, and the brain and left lung were homogenized and cultured for quantitative determination of the tissue burden (number of CFU per gram of tissue). Tissues were homogenized for 25 s in 1 ml phosphate-buffered saline using two 6.5-mm steel beads and a Mini-Beadbeater 16 apparatus (Biospec Products, Inc., Bartlesville, OK) and serially diluted in 10-fold steps. Aliquots (100 μl) of homogenate were plated and incubated for 3 to 7 days at 37°C. Fungal burden data were log10 transformed and evaluated using Kruskal-Wallis tests with Dunn's multiple-comparison test for post hoc analysis (Prism software, v5; GraphPad Software, Inc., San Diego, CA). A P value of ≤0.05 was considered statistically significant.

C. neoformans strain H99 [6] = assay: Murine cryptococcal meningitis model with ABT, dose-response study; type: in vivo, Cryptococcus neoformans
Experimental: A dose-response study was performed with APX2096 and APX2097 to confirm the observed activity. In this study, QD doses of 7.5, 20, and 60 mg/kg were evaluated in conjunction with the administration of ABT. A 60-mg/kg dose QD without ABT was also evaluated as a control.
FIG 3 Dose-response of APX2096 and APX2097 in a murine model of cryptococcal meningitis in conjunction with ABT administration. ABT at 100 mg/kg was administered orally to male CD-1 mice at 2 h prior to each APX compound dose. Mice were injected with 4.8 × 10^4 CFU C. neoformans strain H99 per mouse via the lateral tail vein at time zero. Treatment with the APX compounds was initiated at 1 h postinfection by i.p. administration and continued for 7 days, with 100-mg/kg ABT being administered orally 2 h prior to each APX compound dose. The correction factors for prodrug potencies versus the potencies of the active moieties were similar enough such that the same factor (1.3) was used for all APX compounds. Fungal burden data were log10 transformed and evaluated using Kruskal-Wallis tests with Dunn's multiple-comparison test for post hoc analysis (Prism software, v5; GraphPad Software, Inc., San Diego, CA). […] A P value of ≤0.05 was considered statistically significant (*, P ≤ 0.05; **, P ≤ 0.01; ***, P ≤ 0.001). The 95% confidence interval (CI) is presented.
as §4

[7] = Acute toxicity and survival observed in the CM model with ABT; type: in vivo, mouse; details: i.p. dosing + ABT; dose then reduced to 60 mg/kg for surviving mice
Experimental: as §3, §4

[8] = 34 mg/kg QD i.p. + ABT 100 mg/kg p.o.
[9] = 85 mg/kg QD i.p. + ABT 100 mg/kg p.o.
[10] = QD doses of 7.5, 20 and 60 mg/kg i.p. + ABT
[11] = QD doses of 7.5, 20 and 60 mg/kg i.p. + ABT, not significant

C[C@@H]1[C@H](O)[C@@H](C)/C=C/C=C/C=C/C=C/C=C/C=C/C=C/[C@H](O[C@@H]2O[C@H](C)[C@@H](O)[C@H](N)[C@@H]2O)C[C@@H]2O[C@](O)(C[C@@H](O)C[C@@H](O)[C@H](O)CC[C@@H](O)C[C@@H](O)CC(=O)O[C@H]1C)C[C@H](O)[C@H]2C(=O)O [AMB, amphotericin B, reference compound]
reduction of the lung tissue fungal burden vs untreated control (C. neoformans strain H99 [1]): 4.02 log10 CFU/g
MIC (C. albicans 90028): 1 µg/mL
MIC (C. neoformans [2]; 72 h, Table 1, 50% growth inhibition for FLC, caspofungin and APX compounds, 100% for AMB, 72 h, read-out: MIC, C. neoformans H99): 0.25 µg/mL
MIC (C. neoformans [2]; C. neoformans isolate 14116, read-out: MIC): 0.25 µg/mL
MIC (C. neoformans [2]; C. neoformans isolate 76484, read-out: MIC): 0.25 µg/mL
MIC (C. neoformans [2]; C. neoformans isolate DUMC 118.00 (FLC resistant), read-out: MIC): 0.25 µg/mL
MIC (C. neoformans [2]; C. neoformans isolate DUMC 158.03 (FLC resistant), read-out: MIC): 1 µg/mL
MIC (C. neoformans [2]; C. neoformans isolate MYA-4564, read-out: MIC): 0.25 µg/mL
MIC (C. neoformans [2]; C. neoformans isolate MYA-4565, read-out: MIC): 0.125 µg/mL
MIC (C. neoformans [2]; C. neoformans isolate MYA-4566, read-out: MIC): 0.25 µg/mL
MIC (C. neoformans [2]; C. neoformans isolate MYA-4567, read-out: MIC): 0.25 µg/mL
MIC (C. neoformans [2]; Table 2, C. neoformans isolate H99, read-out: MIC): 0.25 µg/mL
MIC90 (C. neoformans [3]): 2 µg/mL (≈ 2.16 µM)
MIC (A. fumigatus MYA3626): 1 µg/mL
MIC90 [4]: 0.25 µg/mL
MIC ([4]; read-out: Geometric mean MIC): 0.215 µg/mL
MIC (C. gattii; C. gattii isolate MYA-4093, read-out: MIC): 0.25 µg/mL
MIC (C. gattii; C. gattii isolate MYA-4094, read-out: MIC): 0.25 µg/mL
MIC (C. gattii; C. gattii isolate MYA-4560 (first listing, r17), read-out: MIC): 0.063 µg/mL
MIC (C. gattii; C. gattii isolate MYA-4560 (second listing, r21), read-out: MIC): 0.063 µg/mL
MIC (C. gattii; C. gattii isolate MYA-4561, read-out: MIC): 0.25 µg/mL
MIC (C. gattii; C. gattii isolate MYA-4562, read-out: MIC): 0.25 µg/mL
MIC (C. gattii; C. gattii isolate MYA-4563, read-out: MIC): 0.125 µg/mL
MIC (C. gattii; C. gattii isolate MYA-4877, read-out: MIC): 0.25 µg/mL
MIC (C. gattii; C. gattii isolate RSA-MW-3615 (FLC resistant), read-out: MIC): 0.25 µg/mL
MIC (C. gattii; Table 1, 50% growth inhibition for FLC, caspofungin and APX compounds, 100% for AMB, read-out: MIC, C. gattii WM276): 0.25 µg/mL

Nc1c(-c2cc(Cc3ccc(OCc4ccccc4)cc3)no2)ccc[n+]1COP(=O)([O-])O [APX2097]
reduction in brain fungal burden (C. neoformans strain H99 [5]; [8]): 1.66 log10 CFU/g
reduction in lung fungal burden (C. neoformans strain H99 [5]; [8]): 1.07 log10 CFU/g
reduction in brain fungal burden (C. neoformans strain H99 [5]; [9]): 2.72 log10 CFU/g
reduction in lung fungal burden (C. neoformans strain H99 [5]; [9]): 3.28 log10 CFU/g
reduction in brain fungal burden (C. neoformans strain H99 [6]; 60 mg/kg QD i.p. + ABT): 1.45 log10 CFU/g
reduction in lung fungal burden (C. neoformans strain H99 [6]; 60 mg/kg QD i.p. + ABT): 1.55 log10 CFU/g
dose-dependent change in brain fungal burden: increase end of range (C. neoformans strain H99 [6]; [10]): 0.24 log10 CFU/g
dose-dependent change in lung fungal burden: increase end of range (C. neoformans strain H99 [6]; [10]): 1.20 log10 CFU/g
dose-dependent change in brain fungal burden: reduction end of range (C. neoformans strain H99 [6]; [11]): 1.45 log10 CFU/g
dose-dependent change in lung fungal burden: reduction end of range (C. neoformans strain H99 [6]; [11]): 1.55 log10 CFU/g
Acute toxicity observed (day of treatment) [7]: day 6
